# Experimental data published in US20250270201A1, “SUBSTITUTED PYRIMIDINYL HYDRAZIDE COMPOUND AND PREPARATION METHOD AND USE THEREOF” (ARIGENX THERAPEUTICS CO., LTD., priority 2022, published 2025).
# Biological target: T1, AHR (Homo sapiens, UniProt P35869)
# T1 construct: A human liver cancer cell line HepG2 endogenously expressing an AHR protein; host or cells: HepG2 stably transfected with a CYP1A1-promoter firefly luciferase reporter
# T1 sequence (P35869 11-848): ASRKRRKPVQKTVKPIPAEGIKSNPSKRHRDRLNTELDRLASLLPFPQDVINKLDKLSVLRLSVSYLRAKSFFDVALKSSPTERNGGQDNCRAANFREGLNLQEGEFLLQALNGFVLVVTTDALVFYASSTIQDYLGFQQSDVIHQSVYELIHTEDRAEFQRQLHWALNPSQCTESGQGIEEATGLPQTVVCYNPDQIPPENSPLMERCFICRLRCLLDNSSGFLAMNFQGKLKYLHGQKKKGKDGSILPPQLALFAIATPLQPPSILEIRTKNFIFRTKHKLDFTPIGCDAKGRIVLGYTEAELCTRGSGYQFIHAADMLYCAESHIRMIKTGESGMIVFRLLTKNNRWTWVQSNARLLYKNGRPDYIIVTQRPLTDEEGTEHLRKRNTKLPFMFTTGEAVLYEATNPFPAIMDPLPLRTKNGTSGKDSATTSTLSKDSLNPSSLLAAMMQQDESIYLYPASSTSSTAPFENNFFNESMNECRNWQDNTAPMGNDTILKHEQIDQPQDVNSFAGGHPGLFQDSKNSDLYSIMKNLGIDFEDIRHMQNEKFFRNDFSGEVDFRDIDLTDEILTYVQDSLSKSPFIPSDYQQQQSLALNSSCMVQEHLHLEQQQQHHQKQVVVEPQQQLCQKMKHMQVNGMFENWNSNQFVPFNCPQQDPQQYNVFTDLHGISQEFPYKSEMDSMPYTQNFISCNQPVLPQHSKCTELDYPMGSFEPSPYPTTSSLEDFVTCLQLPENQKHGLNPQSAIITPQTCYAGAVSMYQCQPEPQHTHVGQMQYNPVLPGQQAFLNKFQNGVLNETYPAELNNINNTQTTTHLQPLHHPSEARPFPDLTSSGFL
# Assay: Antagonistic effect for AHR in HepG2 cells stably transfected with CYP1A1-promoter firefly luciferase reporter
# Format: cell-based
# Settings: AHR agonist-stimulated, 24 h compound treatment, average of two replicates
# Excerpt: A human liver cancer cell line HepG2 endogenously expressing an AHR protein (provided by the Stem Cell Bank of the Chinese Academy of Sciences) was adopted for testing. The expression of a CYP1A1 gene is regulated by an activity of AHR. After being activated, AHR can bind to a sequence called XRE on a CYP1A1 enhancer and initiate the expression of the CYP1A1 gene. To quantitatively determine an impact of a compound on the activity of AHR, a 1,200 bp (−1,143 to +57) regulatory sequence upstream of a promoter of the CYP1A1 gene was synthesized through gene synthesis and then inserted into a plasmid vector carrying firefly luciferase. The plasmid was then linearized through single enzyme cleavage and then transfected into HepG2 cells through lipofectin transfection (Lipofectamine 3000), and transfected HepG2 cells were screened by puromycin to obtain a stably-expressed cell line. When an antagonistic effect of a compound for AHR was tested, the expression of firefly luciferase was initiated by an AHR agonist (such as L-kynurenine, kynurenic acid, indirubin, TCDD, and 2-(1H-indol-3-ylcarbonyl)-4-thiazolecarboxylic acid methyl ester (ITE)), and cells were treated with the compound at different concentrations. Then, the inhibition on the expression of luciferase by the compound was measured.
# Stably-transfected HepG2 cells were sub-cultivated in Minimum Eagle's medium (MEM) at 37° C. and 5% carbon dioxide. In the MEM, 1 mM sodium pyruvate, 2 mM GlutaMax, 1×non- essential amino acids, 10% Australian fetal bovine serum, 100 U/mL penicillin-streptomycin, and 5 μg/mL puromycin were supplemented. Before testing, HepG2 cells were inoculated into a 96-well plate at a density of 5-8×10^4 cells/well and cultivated for 24 h to 48 h to allow a cell confluency of about 90% before a drug treatment (puromycin was not added in a medium). Before the drug treatment, AHR agonist-containing 2×compound solutions at different concentrations were prepared with a same medium, and then a half of a cell culture medium in the 96-well plate was replaced with a 2×compound solution. An AHR agonist solution including only DMSO at a corresponding concentration was set as a negative control group, and CH223191 at a corresponding concentration (commercially available) was set as a positive control group. 2 separate replicate tests were set for each compound (including a positive control and a negative control). 24 h after the compound treatment, HepG2 cells were lysed by a Steady-Glo luciferase detection system of Promega, and a luciferase signal was measured by an InfiniteM1000 Pro microplate reader of Tecan.
# In terms of data processing, for each replicate test of each compound, inhibition percentages of a compound at different concentrations on an activity of AHR were calculated sequentially with a signal of a well at a compound concentration of 0 as 100% and a cell signal of an untreated agonist as 0. Corresponding IC50 of a compound was calculated with an average value of data of two replicates according to the formula
# […], where y represents an inhibition percentage and x represents a concentration of a corresponding compound.
# IC50 for each compound was shown in Table 2, where A indicates IC50≤500 nM, B indicates 500 nM<IC50≤1.0 μM, C indicates 1 μM<IC50≤5.0 μM, and D indicates IC50>5.0 μM.
row,SMILES,IC50 [nM]
1,O=C(NN1CCOCC1CO)c1cc(-c2ccc(C(F)(F)F)cc2)nc(-c2cccnc2)n1 (stereo not shown) [Compound 23],≤ 500
2,Cc1ccc(-c2cc(C(=O)NN(C(C)C)C(C)CO)nc(-c3cccnc3)n2)cn1 (stereo not shown) [Compound 50],500 to 1000
3,CC(C)N(NC(=O)c1cc(-c2ccc(C(F)(F)F)cc2)nc(-c2cccc(F)c2)n1)C(C)CO (stereo not shown) [Compound 61],≤ 500
4,CC(C)N(NC(=O)c1cc(-c2ccc(OC(F)(F)F)cc2)nc(-c2cccnc2)n1)C(C)CO (stereo not shown) [Compound 14],≤ 500
5,C[C@H]1COCCN1NC(=O)c1cc(-c2ccc(C(F)(F)F)cc2)nc(-c2cnn(C)c2)n1 [Compound 39],≤ 500
6,CC(C)N(CCO)NC(=O)c1cc(-c2ccc(C(F)(F)F)cc2)nc(-c2cnn(C)c2)n1 [Compound 20],≤ 500
7,C[C@@H]1COCCN1NC(=O)c1cc(-c2ccc(OC(F)(F)F)cc2)nc(-c2cccnc2)n1 [Compound 7],≤ 500
8,CC1COCC(=O)N1NC(=O)c1cc(-c2ccc(Cl)cc2)nc(-c2cccnc2)n1 (stereo not shown) [Compound 28],500 to 1000
9,Cn1cc(-c2nc(C(=O)NN3CCOC[C@H]3CO)cc(-c3ccc(Cl)cc3)n2)cn1 [Compound 36],≤ 500
10,CC1(C)COCC(=O)N1NC(=O)c1cc(-c2ccc(C(F)(F)F)cc2)nc(-c2cccnc2)n1 [Compound 30],≤ 500
11,C[C@@H]1COCCN1NC(=O)c1cc(-c2ccc(Cl)cc2)nc(-c2cccnc2)n1 [Compound 9],≤ 500
12,CC(C)N(NC(=O)c1cc(-c2ccc(C(F)(F)F)nc2)nc(-c2cccc(F)c2)n1)C(C)CO (stereo not shown) [Compound 65],500 to 1000
13,CC(C)N(NC(=O)c1cc(-c2ccc(O)cc2)nc(-c2cccnc2)n1)C(C)CO (stereo not shown) [Compound 51],500 to 1000
14,CN(CCO)NC(=O)c1cc(-c2ccc(C(F)(F)F)cc2)nc(-c2cnn(C)c2)n1 [Compound 18],≤ 500
15,CC(O)CN(NC(=O)c1cc(-c2ccc(Cl)cc2)nc(-c2cccnc2)n1)C(C)C (stereo not shown) [Compound 32],≤ 500
16,CC(C)N(NC(=O)c1cc(-c2ccc(C(F)(F)F)nc2)nc(-c2cccc(F)c2)n1)C(C)CO (stereo not shown) [Compound 37],≤ 500
17,CCN(NC(=O)c1cc(-c2ccc(Cl)cc2)nc(-c2cccc(C)c2)n1)C(C)CO (stereo not shown) [Compound 55],500 to 1000
18,C[C@H]1COCCN1NC(=O)c1cc(-c2ccc(OC(F)(F)F)cc2)nc(-c2cnn(C)c2)n1 [Compound 15],≤ 500
19,CC1COCC(C)N1NC(=O)c1cc(-c2ccc(OC(F)(F)F)cc2)nc(-c2cccnc2)n1 (stereo not shown) [Compound 3],≤ 500
20,O=C(NN1CCOC[C@@H]1CO)c1cc(-c2ccc(Cl)cc2)nc(-c2cccnc2)n1 [Compound 47],≤ 500
21,CC(C)N(NC(=O)c1cc(-c2ccc(C(F)(F)F)cc2)nc(-c2cccnc2)n1)S(C)(=O)=O [Compound 67],≤ 500
22,O=C(NN1CCS(=O)(=O)CC1)c1cc(-c2ccc(C(F)(F)F)cc2)nc(-c2cccnc2)n1 [Compound 25],500 to 1000
23,CC(C)N(NC(=O)c1cc(-c2ccc(N)cc2)nc(-c2cccnc2)n1)C(C)CO (stereo not shown) [Compound 63],500 to 1000
24,C[C@H]1COCCN1NC(=O)c1cc(-c2ccc(Cl)cc2)nc(-c2cnn(C)c2)n1 [Compound 41],≤ 500
25,CCN(NC(=O)c1cc(-c2ccc(C(F)(F)F)cc2)nc(-c2cccs2)n1)C(C)CO (stereo not shown) [Compound 56],≤ 500

row,SMILES,IC50 [nM]
1,CC(C)N(NC(=O)c1cc(-c2cccc(F)c2)nc(-c2cccnc2)n1)C(C)CO (stereo not shown) [Compound 58],500 to 1000
2,C[C@@H]1COCCN1NC(=O)c1cc(-c2ccc(OC(F)(F)F)cc2)nc(-c2cnn(C)c2)n1 [Compound 16],≤ 500
3,Cn1cc(-c2nc(C(=O)NN3CCOC[C@@H]3CO)cc(-c3ccc(C(F)(F)F)cc3)n2)cn1 [Compound 44],≤ 500
4,"CC(C)N(NC(=O)c1cc(-c2ccc(C(F)(F)F)cc2)nc(-c2cccnc2)n1)C(C)CO (stereo not shown) [Compound 1, 6-(4-trifluoromethylenyl)-N-(1-hydroxypropyy1-2-yl)-N-isopropyl-2-(pyridin-3-yl)pyrimidin-4-hydrazide]",≤ 500
5,CCN(NC(=O)c1cc(-c2ccc(C(F)(F)F)cc2)nc(-c2cccc(C)c2)n1)C(C)CO (stereo not shown) [Compound 53],500 to 1000
6,CC(C)N(CCO)NC(=O)c1cc(-c2ccc(Cl)cc2)nc(-c2cccnc2)n1 [Compound 19],≤ 500
7,C[C@@H]1COCCN1NC(=O)c1cc(-c2ccc(C(F)(F)F)cc2)nc(-c2cccnc2)n1 [Compound 5],≤ 500
8,CC(=O)N(NC(=O)c1cc(-c2ccc(C(F)(F)F)cc2)nc(-c2cccnc2)n1)C(C)C [Compound 66],≤ 500
9,CC(C)NNC(=O)c1cc(-c2ccc(C(F)(F)F)cc2)nc(-c2cccnc2)n1 [Compound 10],≤ 500
10,CC(C)N(NC(=O)c1cc(-c2ccc(Cl)cc2)nc(-c2cccnc2)n1)C(C)CO (stereo not shown) [Compound 2],≤ 500
11,CC(=O)N(NC(=O)c1cc(-c2ccc(C(F)(F)F)cc2)nc(-c2cccnc2)n1)c1cnccn1 [Compound 33],≤ 500
12,CCN(NC(=O)c1cc(-c2ccc(C(F)(F)F)cc2)nc(-c2cccc(F)c2)n1)C(C)CO (stereo not shown) [Compound 52],≤ 500
13,C[C@H]1COCCN1NC(=O)c1cc(-c2ccc(C(F)(F)F)cc2)nc(-c2cccnc2)n1 [Compound 4],≤ 500
14,CCN(NC(=O)c1cc(-c2ccc(C(F)(F)F)cc2)nc(-c2cnsc2)n1)C(C)CO (stereo not shown) [Compound 57],≤ 500
15,O=C(NN1CCOC[C@H]1CO)c1cc(-c2ccc(Cl)cc2)nc(-c2cccnc2)n1 (stereo in doubt) [Compound 46],≤ 500
16,C[C@@H]1COCCN1NC(=O)c1cc(-c2ccc(Cl)cc2)nc(-c2cnn(C)c2)n1 [Compound 40],≤ 500
17,CC1COCC(=O)N1NC(=O)c1cc(-c2ccc(OC(F)(F)F)cc2)nc(-c2cccnc2)n1 (stereo not shown) [Compound 11],≤ 500
18,O=C(NN1CCOC[C@@H]1CO)c1cc(-c2ccc(C(F)(F)F)cc2)nc(-c2cccnc2)n1 [Compound 43],≤ 500
19,Cn1cc(-c2nc(C(=O)NN3CCOC[C@@H]3CO)cc(-c3ccc(Cl)cc3)n2)cn1 [Compound 35],≤ 500
20,Cc1ccc(-c2cc(C(=O)NN(C(C)C)C(C)CO)nc(-c3cccnc3)n2)s1 (stereo not shown) [Compound 62],500 to 1000
21,Cc1ccc(-c2cc(C(=O)NN(C(C)C)C(C)CO)nc(-c3cccnc3)n2)cc1 (stereo not shown) [Compound 49],≤ 500
22,C[C@@H]1COCCN1NC(=O)c1cc(-c2ccc(C(F)(F)F)cc2)nc(-c2cnn(C)c2)n1 [Compound 38],500 to 1000
23,CC1(C)CN(NC(=O)c2cc(-c3ccc(C(F)(F)F)cc3)nc(-c3cccnc3)n2)CCO1 [Compound 31],500 to 1000
24,CC1COCC(CO)N1NC(=O)c1cc(-c2ccc(C(F)(F)F)cc2)nc(-c2cccnc2)n1 (stereo not shown) [Compound 12],≤ 500
